This assay has as its system CD2F1 mice, L1210 leukemia ip, survival T/C. Nature of the assay: NCI In Vivo Anticancer Drug Screen. Data for tumor model L1210 Leukemia (intraperitoneal) in CD2F1 (CDF1) mice. The settings on record: higher = longer survival. The essentials: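 Each value reflects a quotient of treated over vehicle control outcomes in mice with a transplanted tumor.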
Where [1] appears, read: endpoint: mean survival time, dose: 100.0 mg/kg/injection, schedule: Q04DX003 (ip), vehicle: saline.
Setting [2] is: endpoint: mean survival time, dose: 200.0 mg/kg/injection, schedule: Q04DX003 (ip), vehicle: saline.
Where [3] appears, read: endpoint: mean survival time, dose: 400.0 mg/kg/injection, schedule: Q04DX003 (ip), vehicle: saline.
[4] abbreviates: endpoint: mean survival time, dose: 100.0 mg/kg/injection, schedule: Q04DX002 (ip), vehicle: saline with Tween-80.
Setting [5] is: endpoint: mean survival time, dose: 200.0 mg/kg/injection, schedule: Q04DX002 (ip), vehicle: saline with Tween-80.
The mark [6] stands for this setting: endpoint: mean survival time, dose: 400.0 mg/kg/injection, schedule: Q04DX002 (ip), vehicle: saline with Tween-80.
[7] abbreviates: endpoint: mean survival time, dose: 88.0 mg/kg/injection, schedule: Q01DX009 (ip), vehicle: saline with Tween-80.

Experimental findings from PubChem BioAssay AID256 (DTP/NCI, 2004) are described below.

“And” between values parts separate entries of the source, which are not always exact repeats. Identical values can stand only once. Inconclusive results and toxic doses are left out.

As for `N#Cc1c(N)[nH]c2ccc(Sc3ccccc3)cc12`, the T/C by setting is: (endpoint: median survival time, dose: 6.25 mg/kg/injection, schedule: Q01DX005 (ip), vehicle: saline with Tween-80) 108 % of control; (endpoint: median survival time, dose: 12.5 mg/kg/injection, schedule: Q01DX005 (ip), vehicle: saline with Tween-80) 101 % of control and 109 % of control; (endpoint: median survival time, dose: 25.0 mg/kg/injection, schedule: Q01DX005 (ip), vehicle: saline with Tween-80) 102 % of control and 112 % of control; (endpoint: median survival time, dose: 43.0 mg/kg/injection, schedule: Q01DX005 (ip), vehicle: saline with Tween-80) 112 % of control; (endpoint: median survival time, dose: 43.2 mg/kg/injection, schedule: Q01DX005 (ip), vehicle: saline with Tween-80) 117 % of control; (endpoint: median survival time, dose: 50.0 mg/kg/injection, schedule: Q01DX005 (ip), vehicle: saline with Tween-80) 123 % of control and 110 % of control. In addition, the T/C is 101 % of control (endpoint: median survival time, dose: 100.0 mg/kg/injection, schedule: Q01DX005 (ip), vehicle: saline with Tween-80); 153 % of control and 164 % of control (endpoint: median survival time, dose: 120.0 mg/kg/injection, schedule: Q01DX005 (ip), vehicle: saline with Tween-80).
Take `S=C(S)N1CCCC1`: the T/C was 95 % of control under setting [1], 95 % of control under setting [2] and 92 % of control under setting [3].
As for `CCCCCCCC(=O)N1CCCN(C(=O)CCCCCCC)C1`, the T/C by setting is: (endpoint: mean survival time, dose: 25.0 mg/kg/injection, schedule: Q04DX003 (ip), vehicle: saline) 94 % of control; (endpoint: mean survival time, dose: 50.0 mg/kg/injection, schedule: Q04DX003 (ip), vehicle: saline) 95 % of control; under setting [1], 97 % of control.
Regarding `O=C1C2C3CCC(C3)C2C(=O)C2C3CCC(C3)C12` (stereo not given), the T/C (endpoint: mean survival time, dose: 100.0 mg/kg/injection, schedule: Q04DX003 (ip), vehicle: other) is 93 % of control; the T/C (endpoint: mean survival time, dose: 200.0 mg/kg/injection, schedule: Q04DX003 (ip), vehicle: other) is 89 % of control; the T/C (endpoint: mean survival time, dose: 400.0 mg/kg/injection, schedule: Q04DX003 (ip), vehicle: other) is 93 % of control.
As for `O=C(CCN1C(=O)c2ccccc2C1=O)c1ccccc1`, the T/C by setting is: under setting [4], 95 % of control; under setting [5], 89 % of control; under setting [6], 92 % of control.
For the compound `CN(C)N=Nc1cc(Cl)cc(C(N)=O)c1Cl`, the T/C reads like this: under setting [7], 123 % of control; (endpoint: mean survival time, dose: 177.0 mg/kg/injection, schedule: Q01DX009 (ip), vehicle: saline with Tween-80) 120 % of control; (endpoint: mean survival time, dose: 400.0 mg/kg/injection, schedule: Q01DX009 (ip), vehicle: saline with Tween-80) 96 % of control.
With `O=NN1CCOC1=NC1CCCCC1`, the T/C (endpoint: mean survival time, dose: 3.12 mg/kg/injection, schedule: Q01DX001 (ip), vehicle: distilled water + Tween-80) was 97 % of control; the T/C (endpoint: mean survival time, dose: 6.25 mg/kg/injection, schedule: Q01DX001 (ip), vehicle: distilled water + Tween-80) is 94 % of control; the T/C (endpoint: mean survival time, dose: 12.5 mg/kg/injection, schedule: Q01DX001 (ip), vehicle: distilled water + Tween-80) is 98 % of control; the T/C (endpoint: mean survival time, dose: 25.0 mg/kg/injection, schedule: Q01DX001 (ip), vehicle: distilled water + Tween-80) was 97 % of control; the T/C (endpoint: mean survival time, dose: 50.0 mg/kg/injection, schedule: Q01DX001 (ip), vehicle: distilled water + Tween-80) was 100 % of control; the T/C (endpoint: mean survival time, dose: 100.0 mg/kg/injection, schedule: Q01DX001 (ip), vehicle: distilled water + Tween-80) is 100 % of control. Further, the T/C reads like this: (endpoint: mean survival time, dose: 200.0 mg/kg/injection, schedule: Q01DX001 (ip), vehicle: distilled water + Tween-80) 110 % of control; (endpoint: mean survival time, dose: 400.0 mg/kg/injection, schedule: Q01DX001 (ip), vehicle: distilled water + Tween-80) 110 % of control.
For the compound `Cc1cc(C)c(C)c(C(C)O)c1C` (stereo not given), the T/C (endpoint: mean survival time, dose: 50.0 mg/kg/injection, schedule: Q01DX009 (ip), vehicle: saline with Tween-80) was 100 % of control; the T/C (endpoint: mean survival time, dose: 100.0 mg/kg/injection, schedule: Q01DX009 (ip), vehicle: saline with Tween-80) was 100 % of control; the T/C (endpoint: mean survival time, dose: 200.0 mg/kg/injection, schedule: Q01DX009 (ip), vehicle: saline with Tween-80) was 97 % of control.
Turning to `c1ccc(-c2cscc2-c2ccccc2)cc1`, the T/C (endpoint: mean survival time, dose: 100.0 mg/kg/injection, schedule: Q01DX001 (ip), vehicle: saline with Tween-80) is 96 % of control; the T/C (endpoint: mean survival time, dose: 200.0 mg/kg/injection, schedule: Q01DX001 (ip), vehicle: saline with Tween-80) is 96 % of control; the T/C (endpoint: mean survival time, dose: 400.0 mg/kg/injection, schedule: Q01DX001 (ip), vehicle: saline with Tween-80) was 96 % of control.
For `NC(=S)N/N=C/c1ccc([N+](=O)[O-])cc1`, the T/C (endpoint: mean survival time, dose: 75.0 mg/kg/injection, schedule: Q01DX001 (ip), vehicle: saline with Tween-80) is 95 % of control.
`c1ccc(N=Nc2n[nH]c3ccccc23)cc1`: the T/C is 95 % of control (endpoint: mean survival time, dose: 100.0 mg/kg/injection, schedule: Q04DX003 (ip), vehicle: saline with Tween-80); 98 % of control (endpoint: mean survival time, dose: 200.0 mg/kg/injection, schedule: Q04DX003 (ip), vehicle: saline with Tween-80); 95 % of control (endpoint: mean survival time, dose: 400.0 mg/kg/injection, schedule: Q04DX003 (ip), vehicle: saline with Tween-80).
Turning to `CC(=O)c1c(C)cc(=O)[nH]c1C`, the T/C runs as follows: under setting [4], 96 % of control; under setting [5], 96 % of control; under setting [6], 100 % of control.
For the compound `O=C(c1ccccc1)c1cccs1`, the T/C was 96 % of control (endpoint: mean survival time, dose: 22.0 mg/kg/injection, schedule: Q01DX009 (ip), vehicle: saline with Tween-80); 95 % of control (endpoint: mean survival time, dose: 22.0 mg/kg/injection, schedule: Q04DX003 (ip), vehicle: saline with Tween-80); 96 % of control (endpoint: mean survival time, dose: 44.0 mg/kg/injection, schedule: Q01DX009 (ip), vehicle: saline with Tween-80); 101 % of control (endpoint: mean survival time, dose: 44.0 mg/kg/injection, schedule: Q04DX003 (ip), vehicle: saline with Tween-80); 93 % of control under setting [7]; 104 % of control (endpoint: mean survival time, dose: 88.0 mg/kg/injection, schedule: Q04DX003 (ip), vehicle: saline with Tween-80).
Turning to `CC(Br)C(Br)CO` (stereo not given), the T/C under setting [1] was 104 % of control, the T/C under setting [2] is 96 % of control and the T/C under setting [3] is 106 % of control.
Regarding `O=C(c1cccnc1)c1cn(C2OC(CO)C(O)C(O)C2O)c2ccccc12` (stereo not given), the T/C by setting is: (endpoint: mean survival time, dose: 12.5 mg/kg/injection, schedule: Q01DX005 (ip), vehicle: other) 93 % of control; (endpoint: mean survival time, dose: 25.0 mg/kg/injection, schedule: Q01DX005 (ip), vehicle: other) 97 % of control; (endpoint: mean survival time, dose: 50.0 mg/kg/injection, schedule: Q01DX005 (ip), vehicle: other) 104 % of control; (endpoint: mean survival time, dose: 100.0 mg/kg/injection, schedule: Q01DX005 (ip), vehicle: other) 97 % of control; (endpoint: mean survival time, dose: 200.0 mg/kg/injection, schedule: Q01DX005 (ip), vehicle: other) 95 % of control.
Consider `CCC12C[N+]3([O-])CCc4c([nH]c5ccccc45)C(C(=O)OC)(c4cc5c(cc4OC)N(C)C4C(O)(C(=O)OC)C(OC(C)=O)C6(CC)C=CCN7CCC54C76)CC(C3)C1O2` (stereo not given), for which the T/C runs as follows: (endpoint: median survival time, dose: 0.62 mg/kg/injection, schedule: Q01DX009 (ip), vehicle: water) 98 % of control; (endpoint: median survival time, dose: 1.25 mg/kg/injection, schedule: Q01DX009 (ip), vehicle: water) 103 % of control; (endpoint: median survival time, dose: 2.5 mg/kg/injection, schedule: Q01DX009 (ip), vehicle: water) 98 % of control and 105 % of control and 107 % of control; (endpoint: median survival time, dose: 5.0 mg/kg/injection, schedule: Q01DX009 (ip), vehicle: water) 101 % of control and 105 % of control and 110 % of control; (endpoint: median survival time, dose: 10.0 mg/kg/injection, schedule: Q01DX009 (ip), vehicle: water) 115 % of control and 117 % of control; (endpoint: median survival time, dose: 20.0 mg/kg/injection, schedule: Q01DX009 (ip), vehicle: water) 117 % of control and 119 % of control and 112 % of control.
For the compound `O=C1C2C3C=CC(C3)C2C(=NS(=O)(=O)c2ccccc2)C2C3C=CC(C3)C12` (stereo not given), the T/C was 91 % of control (endpoint: mean survival time, dose: 100.0 mg/kg/injection, schedule: Q04DX003 (ip), vehicle: Klucel (hydroxypropylcellulose) (HPC)); 93 % of control (endpoint: mean survival time, dose: 200.0 mg/kg/injection, schedule: Q04DX003 (ip), vehicle: Klucel (hydroxypropylcellulose) (HPC)); 91 % of control (endpoint: mean survival time, dose: 400.0 mg/kg/injection, schedule: Q04DX003 (ip), vehicle: Klucel (hydroxypropylcellulose) (HPC)).
With `Cc1ccc2c(c1)-c1[nH]c3ccccc3c1CS2`, the T/C runs as follows: (endpoint: mean survival time, dose: 50.0 mg/kg/injection, schedule: Q01DX009 (ip), vehicle: Klucel (hydroxypropylcellulose) (HPC)) 109 % of control; (endpoint: mean survival time, dose: 100.0 mg/kg/injection, schedule: Q01DX009 (ip), vehicle: Klucel (hydroxypropylcellulose) (HPC)) 107 % of control; (endpoint: mean survival time, dose: 200.0 mg/kg/injection, schedule: Q01DX009 (ip), vehicle: Klucel (hydroxypropylcellulose) (HPC)) 107 % of control.
